Experimental data published in patent US6730694B1, “sPLA2 inhibitors” (Eli Lilly and Company, priority 2003, dated 2004).
pIC50: −log10 of the molar value.

How the values were obtained:
[1] = target: T1, recombinant human secreted phospholipase A2 (Homo sapiens, UniProt P14555); assay: Chromogenic assay of recombinant human secreted phospholipase A2 inhibition; type: biochemical; conditions: diheptanoyl thio-PC substrate, pH 7.5, 40° C., 30 minutes, absorbance at 405 nanometers; read-out: Inhibition of human secreted PLA2 IC50 ± mean deviation (3-4 tests)
T1 sequence (P14555 21-144): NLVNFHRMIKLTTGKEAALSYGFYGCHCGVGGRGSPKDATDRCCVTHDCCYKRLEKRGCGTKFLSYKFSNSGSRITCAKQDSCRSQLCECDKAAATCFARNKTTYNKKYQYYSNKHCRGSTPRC
Description: The following chromogenic assay procedure was used to identify and evaluate inhibitors of recombinant human secreted phospholipase A2. The assay described herein has been adapted for high volume screening using 96 well microtiter plates. A general description of this assay method is found in the article, “Analysis of Human Synovial Fluid Phospholipase A2 on Short Chain Phosphatidylcholine-Mixed Micelles: Development of a Spectrophotometric Assay Suitable for a Microtiterplate Reader”, by Laure J. Reynolds, Lori L. Hughes, and Edward A Dennis, Analytical Biochemistry, 204, pp. 190-197, 1992 (the disclosure of which is incorporated herein by reference):
Adjust pH to 4.5 with acetic acid […]
A measured volume of racemic dipheptanoyl thio PC supplied in chloroform at a concentration of 100 mg/ml is taken to dryness and redissolved in 10 millimolar […]
5. Read absorbance of wells at 405 nanometers with an automatic plate reader.
All compounds were tested in triplicate. […] Compounds initially found to be active were reassayed to confirm their activity and, if sufficiently active, IC50 values were determined. […] In all cases, % inhibition measured at 405 nanometers generated by enzyme reactions containing inhibitors relative to the uninhibited control reactions was determined. […] IC50 values were determined by plotting log concentration versus inhibition values in the range from 10-90% inhibition.

pIC50 [1]: 5.26 | melting point: 169 to 172 °C
SMILES: CCc1c(C(=O)C(N)=O)c2ccsc2n1Cc1ccccc1 [Example 1, 2-(6-Benzyl-5-ethyl-6H-thieno[2,3-b]pyrrol-4-yl)-2-oxoacetamide]
